Experiment [1] concerns the target T1, Na^+,K^+ -ATPase (Canis lupus familiaris, UniProt P50997).
T1 construct: Na^+,K^+ -ATPase receptor purified according to Jorghensen; from tissue
The experiment is described as follows: displacement of the specific 3H-ouabain binding from the purified Na+,K+-ATPase receptor. The conditions noted are these: for IC50: 3H-ouabain displacement, purified Na+,K+-ATPase, read-out: Binding ^3 H-Ouab. Displacement log IC50 (converted). The source says: (§1) To test the affinity for the receptor site of the Na^+,K^+ -ATPase and the agonist or antagonist activity on the enzyme, the following tests were used:
a) displacement of the specific ^3 H-ouabain binding from the Na^+,K^+ -ATPase receptor purified according to Jorghensen (Jorghensen P., BBA. 1974, 356, 36) and Erdmann (Erdmann E. et al., Arzneim. Forsh., 1984, 34, 1314);

The target in experiment [2] is T1, Na^+,K^+ -ATPase. The experiment is described as follows: inhibition of the activity of the purified Na+,K+-ATPase (% hydrolysis of 32P-ATP). The class given is biochemical. The conditions noted are these: for IC50: purified Na+,K+-ATPase, 32P-ATP hydrolysis, read-out: Inhibitory Activity log IC50 (converted).
Source text: as §1
b) inhibition of the activity of the purified Na^+,K^+ -ATPase measured as % of hydrolysis of ^32 P-ATP in presence and in absence of the tested compound (Doucet A. et al. Am. J. Physiol., 1986, 251, F851)

pIC50: −log10 of the molar value.

For orientation: IC50 means the concentration needed to halve the response being measured. As for `CC(/C=N/NC1=NCCN1)=C\[C@H]1CC[C@]2(O)[C@@H]3CC[C@@H]4C[C@@H](O)CC[C@]4(C)[C@H]3CC[C@]12C` [Comp. I-ab, (E,E)-17β-[3-(2-Imidazolin-2-yl)hydrazono-2-methyl-1-propenyl]-5β-androstane-3β,14β-diol], the IC50 at Na^+,K^+ -ATPase [1] was 0.0631 µM; at Na^+,K^+ -ATPase [2] it was 3.16 µM.

What is called pIC50 is the negative decadic logarithm of the IC50, by convention in mol/L. The low end stands for a high IC50, the high end for a low IC50. With `CC(/C=N/NC1=NCCN1C)=C\[C@H]1CC[C@]2(O)[C@@H]3CC[C@@H]4C[C@@H](O)CC[C@]4(C)[C@H]3CC[C@]12C` [Comp. I-ac, (E,E)-17β-[3-(1-Methyl-2-imidazolin-2-yl)hydrazono-2-methyl-1-propenyl]-5β-androstane-3β,14β-diol], the half-inhibitory concentration (IC50) on Na^+,K^+ -ATPase [1] is 0.316 µM. On Na^+,K^+ -ATPase [2], the pIC50 was 5.40.

On to `CC(/C=N/NC1=NCCCN1)=C\[C@H]1CC[C@]2(O)[C@@H]3CC[C@@H]4C[C@@H](O)CC[C@]4(C)[C@H]3CC[C@]12C` [Comp. I-ad, (E,E)-17β-[3-(1,4,5,6-Tetrahydro-2-pyrimidinyl)hydrazono-2-methyl-1-propenyl]-5β-androstane-3β,14β-diol], for which the IC50 on Na^+,K^+ -ATPase [1] is 0.0631 µM. On Na^+,K^+ -ATPase [2], this compound showed a pIC50 of 5.60.

Regarding `CC(/C=N/NC(=N)NCCN(C)C)=C\[C@H]1CC[C@]2(O)[C@@H]3CC[C@@H]4C[C@@H](O)CC[C@]4(C)[C@H]3CC[C@]12C` [Comp. I-ae, (E,E)-17β-{3-[3-(2-Dimethylaminoethyl)guanidinoimino]-2-methyl-1-propenyl}-5β-androstane-3β,14β-diol], the results for the negative-log IC50 (pIC50) at Na^+,K^+ -ATPase [1] and at Na^+,K^+ -ATPase [2] were 6.30 and 5.20, respectively.

In the case of `CC(/C=N/OCCCN)=C\[C@H]1CC[C@]2(O)[C@@H]3CC[C@@H]4C[C@@H](O)CC[C@]4(C)[C@H]3CC[C@]12C` [Comp. I-ag], the IC50 at Na^+,K^+ -ATPase [1] was 0.0251 µM; on Na^+,K^+ -ATPase [2], 0.0501 µM.

`CC(/C=N/OCCN(C)C)=C\[C@H]1CC[C@]2(O)[C@@H]3CC[C@@H]4C[C@@H](O)CC[C@]4(C)[C@H]3CC[C@]12C` [Comp. I-ah, (E,E)-17β-[3-(2-Dimethylaminoethoxyimino)-2-methyl-1-propenyl]-5β-androstane-3β,14β-diol]: the IC50 is 0.02 µM at Na^+,K^+ -ATPase [1] and 0.0631 µM on Na^+,K^+ -ATPase [2].

Consider `CC(/C=N/OCCCN(C)C)=C\[C@H]1CC[C@]2(O)[C@@H]3CC[C@@H]4C[C@@H](O)CC[C@]4(C)[C@H]3CC[C@]12C` [Comp. I-ai, (E,E)-17β-[3-(3-Dimethylaminopropoxyimino)-2-methyl-1-propenyl]-5β-androstane-3β,14β-diol], for which the values for the concentration for half-maximal inhibition (IC50) at Na^+,K^+ -ATPase [1] and on Na^+,K^+ -ATPase [2] were 0.0316 µM and 0.0631 µM, respectively.

The compound `CC(/C=N/OCCNC(=N)N)=C\[C@H]1CC[C@]2(O)[C@@H]3CC[C@@H]4C[C@@H](O)CC[C@]4(C)[C@H]3CC[C@]12C` [Comp. I-aj, (E,E)-17β-[3-(2-Guanidinoethoxyimino)-2-methyl-1-propenyl]-5β-androstane-3β,14β-diol] had a negative-log IC50 (pIC50) on Na^+,K^+ -ATPase [1] of 7.30. In addition, the IC50 at Na^+,K^+ -ATPase [2] was 0.126 µM.

For `CC(/C=N/OCCCNC(=N)N)=C\[C@H]1CC[C@]2(O)[C@@H]3CC[C@@H]4C[C@@H](O)CC[C@]4(C)[C@H]3CC[C@]12C` [Comp. I-ak, (E,E)-17β-[3-(3-Guanidinopropoxyimino)-2-methyl-1-propenyl]-5β-androstane-3β,14β-diol], the IC50 on Na^+,K^+ -ATPase [1] is 0.0631 µM. The same compound gave a pIC50 on Na^+,K^+ -ATPase [2] of 6.70.

For the compound `CCC(/C=N/NC(=N)N)=C\[C@H]1CC[C@]2(O)[C@@H]3CC[C@@H]4C[C@@H](O)CC[C@]4(C)[C@H]3CC[C@]12C` [Comp. I-al, (E,E)-17β-(3-Guanidinoimino-2-ethyl-1-propenyl)-5β-androstane-3β,14β-diol], the pIC50 is 6.90 at Na^+,K^+ -ATPase [1] and 6.00 on Na^+,K^+ -ATPase [2].

Turning to `CCC(/C=N/OCCN)=C\[C@H]1CC[C@]2(O)[C@@H]3CC[C@@H]4C[C@@H](O)CC[C@]4(C)[C@H]3CC[C@]12C` [Comp. I-am, (E,E)-17β-[3-(2-Aminoethoxyimino)-2-ethyl-1-propenyl]-5β-androstane-3β,14β-diol], the IC50 is 0.0631 µM at Na^+,K^+ -ATPase [1] and 0.126 µM on Na^+,K^+ -ATPase [2].

On Na^+,K^+ -ATPase [1], `CCC(/C=N/OCCCN)=C\[C@H]1CC[C@]2(O)[C@@H]3CC[C@@H]4C[C@@H](O)CC[C@]4(C)[C@H]3CC[C@]12C` [Comp. I-an, (E,E)-17β-[3-(3-Aminopropoxyimino)-2-ethyl-1-propenyl]-5β-androstane-3β,14β-diol] showed a negative-log IC50 (pIC50) of 7.00. Further, the IC50 at Na^+,K^+ -ATPase [2] was 0.316 µM.

Consider `CCC(/C=N/OCCN(C)C)=C\[C@H]1CC[C@]2(O)[C@@H]3CC[C@@H]4C[C@@H](O)CC[C@]4(C)[C@H]3CC[C@]12C` [Comp. I-ao, (E,E)-17β-[3-(2-Dimethylaminoethoxyimino)-2-ethyl-1-propenyl]-5β-androstane-3β,14β-diol], for which the pIC50 at Na^+,K^+ -ATPase [1] is 6.90. In addition, the IC50 on Na^+,K^+ -ATPase [2] was 0.501 µM.

The compound `CCC(/C=N/OCCCN(C)C)=C\[C@H]1CC[C@]2(O)[C@@H]3CC[C@@H]4C[C@@H](O)CC[C@]4(C)[C@H]3CC[C@]12C` [Comp. I-ap, (E,E)-17β-[3-(3-Dimethylaminopropoxyimino)-2-ethyl-1-propenyl]-5β-androstane-3β,14β-diol] had a negative-log IC50 (pIC50) on Na^+,K^+ -ATPase [1] of 6.70. Further, the IC50 on Na^+,K^+ -ATPase [2] is 0.631 µM.

For the compound `CC(/C=N/NC(=N)N)=C\[C@@]1(O)CC[C@]2(O)[C@@H]3CC[C@@H]4C[C@@H](O)CC[C@]4(C)[C@H]3CC[C@]12C` [Comp. I-aq, (E,E)-17β-(3-Guanidinoimino-2-methyl-1-propenyl]-5β-androstane-3β,14β,17α-triol], the IC50 on Na^+,K^+ -ATPase [1] was 0.398 µM. The compound also gave a pIC50 on Na^+,K^+ -ATPase [2] of 5.40.

In the case of `CC(/C=N/OCCN)=C\[C@@]1(O)CC[C@]2(O)[C@@H]3CC[C@@H]4C[C@@H](O)CC[C@]4(C)[C@H]3CC[C@]12C` [Comp. I-ar, (E,E)-17β-[3-(2-Aminoethoxyimino)-2-methyl-1-propenyl]-5β-androstane-3β,14β,17α-triol], on Na^+,K^+ -ATPase [1], the IC50 is 0.316 µM. The negative logarithm of the IC50 (pIC50) on Na^+,K^+ -ATPase [2] is 5.60.

`CC(/C=N/OCCN(C)C)=C\[C@@]1(O)CC[C@]2(O)[C@@H]3CC[C@@H]4C[C@@H](O)CC[C@]4(C)[C@H]3CC[C@]12C` [Comp. I-as, (E,E)-17β-[3-(2-Dimethylaminoethoxyimino)-2-methyl-1-propenyl]-5β-androstane-3β,14β,17α-triol]: the IC50 at Na^+,K^+ -ATPase [1] was 0.398 µM. The pIC50 on Na^+,K^+ -ATPase [2] was 5.50.

Take `CC(/C=N/NC(=N)N)=C\[C@H]1CC[C@]2(O)[C@@H]3CC[C@@H]4C[C@@H](OCCN5CCCC5)CC[C@]4(C)[C@H]3CC[C@]12C` [Comp. I-at, (E,E)-36-[2-(1-Pyrrolidinyl)ethoxy]-17β-(3-guanidinoimino-2-methyl-1-propenyl]-5β-androstane-14β-ol]: the pIC50 on Na^+,K^+ -ATPase [1] is 7.40. Moreover, the IC50 at Na^+,K^+ -ATPase [2] is 0.158 µM.

For the compound `CC(/C=N/OCCN)=C\[C@H]1CC[C@]2(O)[C@@H]3CC[C@@H]4C[C@@H](OCCN5CCCC5)CC[C@]4(C)[C@H]3CC[C@]12C` [Comp. I-au], the IC50 at Na^+,K^+ -ATPase [1] is 0.02 µM; at Na^+,K^+ -ATPase [2] it was 0.0398 µM.

In turn, `CC(/C=N/NC(=N)N)=C\[C@H]1CC[C@]2(O)[C@@H]3CC[C@@H]4C[C@@H](OCCCN5CCCC5)CC[C@]4(C)[C@H]3CC[C@]12C` [Comp. I-av] showed a pIC50 on Na^+,K^+ -ATPase [1] of 7.30. Also, the IC50 on Na^+,K^+ -ATPase [2] is 0.2 µM.

`CC(/C=N/OCCN)=C\[C@H]1CC[C@]2(O)[C@@H]3CC[C@@H]4C[C@@H](OCC(C)N5CCCC5)CC[C@]4(C)[C@H]3CC[C@]12C` (stereo partly drawn) [Comp. I-aw, (E,E)-3β-[2-(1-Pyrrolidinyl)propoxy]-17β-[3-(2-aminoethoxyimino)-2-methyl-1-propenyl]-5β-androstane-14β-ol]: the IC50 on Na^+,K^+ -ATPase [1] was 0.0251 µM; on Na^+,K^+ -ATPase [2], 0.0631 µM.

Values taken from patent US5705662A, “17-(3-imino-2-alkylpropenyl)-5β, 14β-androstane derivatives active on the cardiovascular system, processes for their preparation and pharmaceutical compositions containing same” (Sigma-Tau Industrie Farmaceutiche Riunite S.p.A., priority 1994, dated 1998).
